pIC50: −log10 of the molar value. Starred links: 1 amine or outer side, 2 acyl side, 3 side chain; linkers in the order of their positions; H or OH if unused. Positions of bridges follow the written chain, without caps; N, C: chain ends. Non-standard residues stand in square brackets, D forms with d. Residues, ends and D or L forms follow the SMILES beside them. *: point of attachment. hPhe(3-Cl-4-CF3) = N[C@@H](CCc1ccc(C(F)(F)F)c(Cl)c1)C(=O)O; NMeDab(N,N-(CH2CF2CH2)) = CN[C@@H](CCN1CC(F)(F)C1)C(=O)O; hPhe(3-F,4-CF3) = N[C@@H](CCc1ccc(C(F)(F)F)c(F)c1)C(=O)O; X35 = CN([C@@](C)(Cc1ccccc1)C(=O)[*:2])[*:1]; hPhe(4-Cl) = N[C@@H](CCc1ccc(Cl)cc1)C(=O)O; NMeGly(cPent) = CN[C@H](C(=O)O)C1CCCC1; Phe(3-I) = N[C@@H](Cc1cccc(I)c1)C(=O)O; NMeY = CN[C@@H](Cc1ccc(O)cc1)C(=O)O; NMeCha = CN[C@@H](CC1CCCCC1)C(=O)O; Azetidine(3,3-F2) = FC1(F)CN(*)C1; NMeD = CN[C@@H](CC(=O)O)C(=O)O; NMeL = CN[C@@H](CC(C)C)C(=O)O; NPrAla = CCCN[C@@H](C)C(=O)O; NMeV = CN[C@H](C(=O)O)C(C)C; d(β3hA) = C[C@@H](N)CC(=O)O; NMeA = CN[C@@H](C)C(=O)O; Nle = CCCC[C@H](N)C(=O)O; Piperidide = C1CCN(*)CC1; Ac5c = NC1(C(=O)O)CCCC1; Aze = O=C(O)[C@@H]1CCN1; Ac4c = NC1(C(=O)O)CCC1; NBuGly = CCCCNCC(=O)O; NPrGly = CCCNCC(=O)O; Sar = CNCC(=O)O; Propyl = CCC*
Biological target: T1, Kras and SOS1 (biotin-tagged human Kras loaded with GDP, His-tagged human SOS1) (Homo sapiens, UniProt P01116, G12D)
T1 construct: made in house; host or cells: E. coli (stated for Kras only)
T1 sequence (P01116 1-188 isoform P01116-2 G12D): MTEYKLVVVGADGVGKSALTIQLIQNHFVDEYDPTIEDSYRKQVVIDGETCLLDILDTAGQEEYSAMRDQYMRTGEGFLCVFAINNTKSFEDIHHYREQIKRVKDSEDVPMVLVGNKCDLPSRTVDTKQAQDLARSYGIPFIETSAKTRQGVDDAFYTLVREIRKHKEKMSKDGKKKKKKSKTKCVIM
Assay: Protein-protein interaction inhibition between Kras and SOS1 (KrasGl2D-SOS PPI) using AlphaScreen
Type: binding
Details: AlphaScreen; biotin-tagged human Kras loaded with GDP, His-tagged human SOS1; read-out: KRAS G12D-SOS PPI IC50
In short: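 AlphaScreen format: Ni donor beads capture His-SOS1, streptavidin acceptor beads capture biotinylated Kras (E. coli-expressed, GDP-loaded post-purification). Excite 680 nm, read 520-620 nm.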

**Q.** With `CC[C@H](C)[C@@H]1NC(=O)[C@H](CC(C)C)N(C)C(=O)C[C@@H](C(=O)N2CCCCC2)N(C)C(=O)[C@H](C(C)C)N(C)C(=O)C2(CCCC2)NC(=O)[C@@H]2CCCN2C(=O)[C@H](CCc2ccc(Cl)cc2)NC(=O)CN(C)C(=O)[C@H](CC2CCCCC2)N(C)C(=O)CN(C)C(=O)[C@@H]2CCN2C1=O` [Compound 112] ([NMeL]I[Aze][Sar][NMeCha][Sar][hPhe(4-Cl)]P[Ac5c][NMeV][NMeD]-Piperidide; lactam N-11) as the compound, how does the pIC50 read?
**A.** 7.14

**Q.** `CCCN1C(=O)C[C@@H](C)NC(=O)[C@H](C(C)C)N(C)C(=O)C2(CCCC2)NC(=O)[C@@H]2CCCN2C(=O)[C@H](CCc2ccc(C(F)(F)F)c(Cl)c2)NC(=O)CN(C)C(=O)[C@H](CC2CCCCC2)N(C)C(=O)CN(C)C(=O)CN(C)C(=O)[C@H]([C@@H](C)CC)NC(=O)[C@@H]1C` [Compound 114] (cyclo([Ac5c][NMeV][d(β3hA)][NPrAla]I[Sar][Sar][NMeCha][Sar][hPhe(3-Cl-4-CF3)]P)) was tested. Which pIC50 did it give?
**A.** 7.70

**Q.** With `CCCN1CC(=O)N(C)CC(=O)N(C)[C@@H](CC2CCCCC2)C(=O)N(C)CC(=O)N[C@@H](CCc2ccc(C(F)(F)F)c(Cl)c2)C(=O)N2CCC[C@H]2C(=O)NC2(CCCC2)C(=O)N(C)[C@@H](C(C)C)C(=O)N[C@H](C)CC(=O)N(C)[C@@H](CC(C)C)C(=O)N[C@@H]([C@@H](C)CC)C1=O` [Compound 116] (cyclo([Ac5c][NMeV][d(β3hA)][NMeL]I[NPrGly][Sar][NMeCha][Sar][hPhe(3-Cl-4-CF3)]P)) as the compound, how does the pIC50 read?
**A.** 6.85

**Q.** `CCCCN1CC(=O)N(C)CC(=O)N(C)[C@@H](CC2CCCCC2)C(=O)N(C)CC(=O)N[C@@H](CCc2ccc(C(F)(F)F)c(Cl)c2)C(=O)N2CCC[C@H]2C(=O)NC2(CCCC2)C(=O)N(C)[C@@H](C(C)C)C(=O)N[C@H](C)CC(=O)N(C)[C@@H](CC(C)C)C(=O)N[C@@H]([C@@H](C)CC)C1=O` [Compound 123] (cyclo([Ac5c][NMeV][d(β3hA)][NMeL]I[NBuGly][Sar][NMeCha][Sar][hPhe(3-Cl-4-CF3)]P)) was tested. Which pIC50 did it give?
**A.** 6.77

**Q.** How did the pIC50 turn out when `CCCC[C@@H]1NC(=O)[C@H](Cc2cccc(I)c2)NC(=O)CN(C)C(=O)[C@H](Cc2ccc(OC)cc2)N(C)C(=O)CN(C)C(=O)CN(C)C(=O)[C@H]([C@@H](C)CC)NC(=O)[C@H](CC(C)C)N(C)C(=O)C[C@@H](C(=O)N2CCCCC2)N(C)C(=O)[C@H](CC(C)C)NC(=O)[C@](C)(Cc2ccccc2)N(C)C1=O` [Compound 125] ([NMeL]I[Sar][Sar][NMeY](Me)[Sar][Phe(3-I)][Nle][X35]L[NMeD]-Piperidide; lactam N-11) was run?
**A.** 8.55

**Q.** How did the pIC50 turn out when `CCCOC[C@@H]1NC(=O)[C@H](CC(=O)N2CC(F)(F)C2)N(C)C(=O)[C@H](CCc2ccc(C(F)(F)F)c(Cl)c2)NC(=O)CN(C)C(=O)[C@H](CC2CCCCC2)N(C)C(=O)CN(C)C(=O)CN(C)C(=O)[C@H]([C@@H](C)CC)NC(=O)[C@H](C)N(C)C(=O)C[C@@H](C(=O)N2CCCCC2)N(C)C(=O)[C@H](C(C)C)N(C)C1=O` [Compound 129] ([NMeA]I[Sar][Sar][NMeCha][Sar][hPhe(3-Cl-4-CF3)][NMeD](Azetidine(3,3-F2))S(Propyl)[NMeV][NMeD]-Piperidide; lactam N-11) was run?
**A.** 7.96

**Q.** `CC[C@H](C)[C@@H]1NC(=O)[C@H](CC(C)C)N(C)C(=O)C[C@@H](C(=O)N(C)C)N(C)C(=O)[C@H](C2CCCC2)N(C)C(=O)[C@H](COC)NC(=O)[C@H](CCN2CC(F)(F)C2)N(C)C(=O)[C@H](CCc2ccc(C(F)(F)F)c(Cl)c2)NC(=O)CN(C)C(=O)[C@H](CC2CCCCC2)N(C)C(=O)[C@@H]2CCN2C(=O)[C@H](C)N(C)C1=O` [Compound 130] ([NMeL]I[NMeA][Aze][NMeCha][Sar][hPhe(3-Cl-4-CF3)][NMeDab(N,N-(CH2CF2CH2))]S(Me)[NMeGly(cPent)][NMeD]-NMe2; lactam N-11) was tested. Which pIC50 did it give?
**A.** 8.00

**Q.** `CC[C@H](C)[C@@H]1NC(=O)[C@H](CC(C)C)N(C)C(=O)C[C@@H](C)NC(=O)[C@H](CC(C)C)N(C)C(=O)C2(CCC2)NC(=O)[C@@H]2CCCN2C(=O)[C@H](CCc2ccc(C(F)(F)F)c(F)c2)NC(=O)CN(C)C(=O)[C@H](CC2CCCCC2)N(C)C(=O)CN(C)C(=O)CN(C)C1=O` [Compound 133] (cyclo([Ac4c][NMeL][d(β3hA)][NMeL]I[Sar][Sar][NMeCha][Sar][hPhe(3-F,4-CF3)]P)) was tested. Which pIC50 did it give?
**A.** 7.64
